This note sets out measurements from ChEMBL document CHEMBL5465560, “Selectivity Literature for EUbOPEN Chemogenomic Library” (2024).

Structures are written as SMILES.

Assay [1] concerns the target T1, NUAK family SNF1-like kinase 2 (Homo sapiens) (UniProt Q9H093).
T1 sequence (whole entry): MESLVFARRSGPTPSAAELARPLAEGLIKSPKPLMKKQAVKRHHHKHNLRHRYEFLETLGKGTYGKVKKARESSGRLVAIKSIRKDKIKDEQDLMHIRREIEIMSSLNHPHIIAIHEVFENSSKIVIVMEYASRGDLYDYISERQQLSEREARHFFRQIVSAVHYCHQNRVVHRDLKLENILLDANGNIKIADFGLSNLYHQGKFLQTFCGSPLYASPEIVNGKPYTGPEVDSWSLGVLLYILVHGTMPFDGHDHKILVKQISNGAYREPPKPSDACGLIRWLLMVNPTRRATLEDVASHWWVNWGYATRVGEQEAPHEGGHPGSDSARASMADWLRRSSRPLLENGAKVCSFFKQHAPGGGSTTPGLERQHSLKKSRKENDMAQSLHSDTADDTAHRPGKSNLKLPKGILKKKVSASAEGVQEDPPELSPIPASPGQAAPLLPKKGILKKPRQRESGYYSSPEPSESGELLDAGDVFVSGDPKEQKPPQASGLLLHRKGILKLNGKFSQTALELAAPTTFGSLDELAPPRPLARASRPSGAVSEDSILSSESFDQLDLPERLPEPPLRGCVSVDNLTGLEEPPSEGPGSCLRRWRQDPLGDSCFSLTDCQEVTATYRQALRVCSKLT
Put plainly: Selectivity interaction (LanthaScreen Eu Kinase Binding Assay) EUB0001632a NUAK2. As to conditions: at 10 µM. (In general: Time-resolved FRET reads energy transfer from a long-lived donor to a nearby acceptor.)

For assay [2], the target named is Calcium/calmodulin-dependent protein kinase type 1D (Homo sapiens) (UniProt Q8IU85). In words: Selectivity interaction (KinomeScan (DiscoverX)) EUB0000666a CAMK1D. As to conditions: at 10 µM.
Chain of Calcium/calmodulin-dependent protein kinase type 1D (Homo sapiens) (Q8IU85 whole entry, looked up): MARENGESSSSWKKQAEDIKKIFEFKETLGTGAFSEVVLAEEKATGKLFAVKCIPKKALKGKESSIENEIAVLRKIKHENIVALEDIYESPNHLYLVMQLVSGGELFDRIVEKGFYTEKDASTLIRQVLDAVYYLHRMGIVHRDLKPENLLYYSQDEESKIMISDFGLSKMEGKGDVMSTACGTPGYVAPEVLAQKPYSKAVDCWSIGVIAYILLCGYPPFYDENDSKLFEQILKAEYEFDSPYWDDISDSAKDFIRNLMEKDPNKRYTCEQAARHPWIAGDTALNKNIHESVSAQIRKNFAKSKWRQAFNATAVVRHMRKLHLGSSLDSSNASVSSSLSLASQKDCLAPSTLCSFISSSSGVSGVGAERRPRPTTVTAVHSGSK
For assay [3], the target named is T2, 5-hydroxytryptamine receptor 1A (Homo sapiens) (UniProt P08908).
T2 sequence (whole entry): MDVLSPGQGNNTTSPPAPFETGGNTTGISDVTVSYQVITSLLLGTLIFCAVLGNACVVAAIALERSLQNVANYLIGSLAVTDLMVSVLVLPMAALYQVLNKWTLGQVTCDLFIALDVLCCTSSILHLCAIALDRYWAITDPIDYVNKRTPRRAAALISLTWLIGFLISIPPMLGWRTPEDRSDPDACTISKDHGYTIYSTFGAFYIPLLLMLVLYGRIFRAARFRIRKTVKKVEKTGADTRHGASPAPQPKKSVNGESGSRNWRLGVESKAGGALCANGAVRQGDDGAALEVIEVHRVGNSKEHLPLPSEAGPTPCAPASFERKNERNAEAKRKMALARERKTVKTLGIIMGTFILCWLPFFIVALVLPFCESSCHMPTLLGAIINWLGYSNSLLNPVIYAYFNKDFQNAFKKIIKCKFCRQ
In words: Selectivity interaction (GPCR panel (PDSP screen)) EUB0001079a HTR1A. As to conditions: at 10 µM.

In assay [4] the target is T3, Serine/threonine-protein kinase D2 (Homo sapiens) (UniProt Q9BZL6).
T3 sequence (whole entry): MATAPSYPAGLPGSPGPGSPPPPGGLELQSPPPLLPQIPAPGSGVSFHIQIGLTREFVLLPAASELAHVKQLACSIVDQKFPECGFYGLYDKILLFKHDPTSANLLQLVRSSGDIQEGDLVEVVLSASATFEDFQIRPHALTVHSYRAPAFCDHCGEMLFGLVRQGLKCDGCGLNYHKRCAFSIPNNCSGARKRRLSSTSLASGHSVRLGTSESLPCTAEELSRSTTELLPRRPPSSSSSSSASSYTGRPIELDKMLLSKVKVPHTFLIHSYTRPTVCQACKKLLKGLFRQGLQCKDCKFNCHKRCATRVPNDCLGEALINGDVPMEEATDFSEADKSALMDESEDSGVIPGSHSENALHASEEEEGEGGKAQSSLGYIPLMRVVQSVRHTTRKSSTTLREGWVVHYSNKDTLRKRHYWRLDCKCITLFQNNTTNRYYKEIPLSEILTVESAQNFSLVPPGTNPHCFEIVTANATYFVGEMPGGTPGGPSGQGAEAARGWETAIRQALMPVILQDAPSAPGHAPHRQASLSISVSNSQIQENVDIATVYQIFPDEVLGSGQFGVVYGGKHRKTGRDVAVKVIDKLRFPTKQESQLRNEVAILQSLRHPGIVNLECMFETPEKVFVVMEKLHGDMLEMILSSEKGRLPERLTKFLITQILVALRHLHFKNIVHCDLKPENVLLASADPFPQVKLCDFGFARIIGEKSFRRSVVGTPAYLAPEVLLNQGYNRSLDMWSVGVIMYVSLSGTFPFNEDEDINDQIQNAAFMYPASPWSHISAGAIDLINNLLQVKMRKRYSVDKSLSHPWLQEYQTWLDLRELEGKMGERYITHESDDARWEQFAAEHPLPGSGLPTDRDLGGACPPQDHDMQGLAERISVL
Put plainly: Selectivity interaction (ActivX KiNativ screen (ex vivo kinase selectivity in human PBMCs)) EUB0001619a PRKD2. Format: cell-based. As to conditions: PBMC, at 1 µM.

For assay [5], the target named is Fibroblast growth factor receptor 2 (Homo sapiens) (UniProt P21802). Put plainly: Selectivity interaction (KinomeScan (DiscoverX)) EUB0000695a FGFR2. As to conditions: at 100 nM.
Chain of Fibroblast growth factor receptor 2 (Homo sapiens) (P21802 22-821 limits assumed): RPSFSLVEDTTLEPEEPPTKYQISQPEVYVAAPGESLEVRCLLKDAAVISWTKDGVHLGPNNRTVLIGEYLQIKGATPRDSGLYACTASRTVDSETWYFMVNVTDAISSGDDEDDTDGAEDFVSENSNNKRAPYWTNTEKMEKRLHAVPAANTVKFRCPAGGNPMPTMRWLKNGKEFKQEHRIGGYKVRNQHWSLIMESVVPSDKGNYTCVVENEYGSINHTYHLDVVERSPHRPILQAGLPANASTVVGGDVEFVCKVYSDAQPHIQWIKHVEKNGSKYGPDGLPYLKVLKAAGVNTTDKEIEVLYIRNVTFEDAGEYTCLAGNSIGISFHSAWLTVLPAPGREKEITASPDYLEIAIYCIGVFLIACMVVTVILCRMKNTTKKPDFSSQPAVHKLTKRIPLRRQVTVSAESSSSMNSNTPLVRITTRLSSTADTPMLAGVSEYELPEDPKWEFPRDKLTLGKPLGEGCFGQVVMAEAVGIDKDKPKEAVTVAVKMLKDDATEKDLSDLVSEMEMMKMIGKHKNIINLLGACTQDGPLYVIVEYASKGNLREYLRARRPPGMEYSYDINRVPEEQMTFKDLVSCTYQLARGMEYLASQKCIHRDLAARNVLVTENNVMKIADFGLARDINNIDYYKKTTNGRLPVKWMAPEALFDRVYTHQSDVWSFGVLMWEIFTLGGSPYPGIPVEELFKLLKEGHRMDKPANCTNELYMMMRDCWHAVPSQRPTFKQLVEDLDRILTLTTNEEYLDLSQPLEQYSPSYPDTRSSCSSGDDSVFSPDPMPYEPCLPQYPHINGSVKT
For assay [6], the target named is Tyrosine-protein kinase Yes (Homo sapiens) (UniProt P07947). In words: Selectivity interaction (ProQinase) EUB0000171b YES1.
Chain of Tyrosine-protein kinase Yes (Homo sapiens) (P07947 2-543 limits assumed): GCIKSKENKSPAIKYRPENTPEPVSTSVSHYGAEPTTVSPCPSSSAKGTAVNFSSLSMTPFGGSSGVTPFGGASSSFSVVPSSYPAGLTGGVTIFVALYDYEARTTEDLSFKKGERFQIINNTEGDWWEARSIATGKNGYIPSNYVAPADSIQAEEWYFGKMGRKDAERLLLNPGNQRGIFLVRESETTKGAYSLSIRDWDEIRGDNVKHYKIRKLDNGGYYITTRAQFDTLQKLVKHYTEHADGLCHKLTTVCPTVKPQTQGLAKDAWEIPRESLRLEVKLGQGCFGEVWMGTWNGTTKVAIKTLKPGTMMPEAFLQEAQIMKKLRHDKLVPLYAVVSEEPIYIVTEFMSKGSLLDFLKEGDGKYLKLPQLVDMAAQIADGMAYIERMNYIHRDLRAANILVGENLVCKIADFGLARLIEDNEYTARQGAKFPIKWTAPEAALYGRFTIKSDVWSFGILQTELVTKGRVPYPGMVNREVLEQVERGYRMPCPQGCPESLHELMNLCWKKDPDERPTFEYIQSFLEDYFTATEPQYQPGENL
Assay [7] has as its target T4, Serine/threonine-protein kinase DCLK2 (Homo sapiens) (UniProt Q8N568).
T4 sequence (whole entry): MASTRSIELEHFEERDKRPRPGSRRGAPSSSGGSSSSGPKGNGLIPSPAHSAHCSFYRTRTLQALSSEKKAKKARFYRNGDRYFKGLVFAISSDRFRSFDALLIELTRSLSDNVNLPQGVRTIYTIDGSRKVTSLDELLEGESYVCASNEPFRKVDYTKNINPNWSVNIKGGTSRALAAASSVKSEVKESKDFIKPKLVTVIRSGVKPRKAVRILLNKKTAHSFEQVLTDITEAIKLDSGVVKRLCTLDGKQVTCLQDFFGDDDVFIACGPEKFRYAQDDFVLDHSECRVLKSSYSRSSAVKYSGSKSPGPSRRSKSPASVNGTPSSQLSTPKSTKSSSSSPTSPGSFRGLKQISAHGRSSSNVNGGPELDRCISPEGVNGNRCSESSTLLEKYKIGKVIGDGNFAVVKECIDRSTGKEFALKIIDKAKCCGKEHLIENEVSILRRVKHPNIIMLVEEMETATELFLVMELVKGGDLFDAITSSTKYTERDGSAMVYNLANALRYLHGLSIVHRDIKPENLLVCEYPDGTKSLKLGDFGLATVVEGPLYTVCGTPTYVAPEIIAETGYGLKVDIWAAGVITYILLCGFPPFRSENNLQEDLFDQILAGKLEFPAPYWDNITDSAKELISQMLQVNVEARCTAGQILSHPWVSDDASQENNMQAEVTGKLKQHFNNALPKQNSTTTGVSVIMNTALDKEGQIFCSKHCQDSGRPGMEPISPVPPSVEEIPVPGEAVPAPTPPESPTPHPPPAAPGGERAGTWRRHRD
As to conditions: at 10 µM.

As to `Cn1cc(-n2cnc3c(NCc4nc5cc(Cl)c(Cl)cc5[nH]4)nc(N4CCOCC4)nc32)cn1`, in assay [1], the % of inhibition was -12.8%.

As to `O=C(NOC[C@H](O)CO)c1ccc(F)c(F)c1Nc1ccc(I)cc1F`, the % of control in assay [2] amounted to 89%.

With `Nc1cnc(N2CCc3cc(S(=O)(=O)Nc4c(F)cc(Cl)cc4F)cc(N4CCCC4=O)c32)nc1` [TP-020n], the % of inhibition in assay [3] came to 4.45%.

With `N#Cc1cccc(-c2c[nH]c3ncnc(N4CCOCC4)c23)c1`, in assay [4], the % of inhibition is -2%.

Regarding `Cc1cc(F)c(C(=O)Nc2cccc(-c3nncn3C(C)C)n2)cc1-n1cnc(C2CC2)c1`, the % of control in assay [5] worked out at 97%.

Regarding `C=CC(=O)Nc1cccc(C(=O)Nc2ccc(Nc3cc(-c4[nH]c(SC)nc4C)ccn3)cc2)c1`, the % of control in assay [6] (at 1 µM) came to 89%; in assay [6] (at 5 µM), 75%.

`COCC(=O)NC/C=C/c1ccc2ncnc(Nc3ccc(Oc4ccc(C)nc4)c(C)c3)c2c1` [CP-724714] showed a % of control in assay [7] of 100%.
